Source: PubChem BioAssay (NCI)
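Results reflect a 48-hour exposure of cells in 96-well plates to compound at five concentrations. Abbreviation: GI50, concentration required for 50% inhibition of growth. The concentration for full growth arrest is given as TGI.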

Experiments:
Assay in all cases: inhibition of tumour cell growth, NCI panel, 48 h
SK-MEL-2 melanoma = test system: SK-MEL-2 melanoma
NCI-H522 lung = test system: NCI-H522 lung
MDA-MB-231 breast = test system: MDA-MB-231 breast
SN12C renal = test system: SN12C renal
UACC-62 melanoma = test system: UACC-62 melanoma
SF-295 CNS = test system: SF-295 CNS
HCC-2998 colon = test system: HCC-2998 colon
IGROV1 ovarian = test system: IGROV1 ovarian
PC-3 prostate = test system: PC-3 prostate
COLO 205 colon = test system: COLO 205 colon
OVCAR-5 ovarian = test system: OVCAR-5 ovarian
T-47D breast = test system: T-47D breast
UO-31 renal = test system: UO-31 renal
NCI-H23 lung = test system: NCI-H23 lung
MALME-3M melanoma = test system: MALME-3M melanoma
KM12 colon = test system: KM12 colon
RXF 393 renal = test system: RXF 393 renal
CAKI-1 renal = test system: CAKI-1 renal
A498 renal = test system: A498 renal
NCI-H226 lung = test system: NCI-H226 lung
RPMI-8226 leukemia = test system: RPMI-8226 leukemia
SR leukemia = test system: SR leukemia
MOLT-4 leukemia = test system: MOLT-4 leukemia
UACC-257 melanoma = test system: UACC-257 melanoma
SF-268 CNS = test system: SF-268 CNS
EKVX NSCLC = test system: EKVX NSCLC
HOP-92 NSCLC = test system: HOP-92 NSCLC
SW-620 colon = test system: SW-620 colon
CCRF-CEM leukemia = test system: CCRF-CEM leukemia
M14 melanoma = test system: M14 melanoma
SF-539 CNS = test system: SF-539 CNS
HS 578T breast = test system: HS 578T breast
HCT-116 colon = test system: HCT-116 colon
OVCAR-3 ovarian = test system: OVCAR-3 ovarian
TK-10 renal = test system: TK-10 renal
DU-145 prostate = test system: DU-145 prostate
MDA-MB-435 = test system: MDA-MB-435
HT29 colon = test system: HT29 colon
U251 CNS = test system: U251 CNS
LOX IMVI melanoma = test system: LOX IMVI melanoma
K-562 leukemia = test system: K-562 leukemia
SK-OV-3 ovarian = test system: SK-OV-3 ovarian
MCF7 breast = test system: MCF7 breast
NCI-H460 lung = test system: NCI-H460 lung
SNB-75 CNS = test system: SNB-75 CNS
SK-MEL-28 melanoma = test system: SK-MEL-28 melanoma
786-0 renal = test system: 786-0 renal
BT-549 breast = test system: BT-549 breast
OVCAR-8 ovarian = test system: OVCAR-8 ovarian
ACHN renal = test system: ACHN renal
A549 NSCLC = test system: A549 NSCLC
HCT-15 colon = test system: HCT-15 colon
MDA-MB-468 breast = test system: MDA-MB-468 breast
HL-60(TB) leukemia = test system: HL-60(TB) leukemia
HOP-62 NSCLC = test system: HOP-62 NSCLC
SK-MEL-5 melanoma = test system: SK-MEL-5 melanoma
NCI/ADR-RES ovarian = test system: NCI/ADR-RES ovarian
SNB-19 CNS = test system: SNB-19 CNS
OVCAR-4 ovarian = test system: OVCAR-4 ovarian

Molecule `O=C(N/N=C/c1ccc(B(O)O)s1)c1[nH]c2ccc(Br)cc2c1-c1ccccc1` has a GI50 (SK-MEL-2 melanoma) of 432 nM, a TGI (SK-MEL-2 melanoma) of 14000 nM and a GI50 (NCI-H522 lung) of 208 nM. It also gave a TGI (NCI-H522 lung) of 549 nM, a GI50 (MDA-MB-231 breast) of 339 nM and a TGI (MDA-MB-231 breast) of 11300 nM. The GI50 (SN12C renal) was 374 nM, the TGI (SN12C renal) was 8110 nM and the GI50 (UACC-62 melanoma) was 395 nM. The TGI (UACC-62 melanoma) was 5920 nM, the GI50 (SF-295 CNS) was 299 nM and the TGI (SF-295 CNS) was 5380 nM. It also gave a GI50 (HCC-2998 colon) of 364 nM, a TGI (HCC-2998 colon) of 5810 nM and a GI50 (IGROV1 ovarian) of 403 nM. For the same molecule, the TGI (IGROV1 ovarian) was 13100 nM, the GI50 (PC-3 prostate) was 476 nM and the TGI (PC-3 prostate) was 16500 nM. It also gave a GI50 (COLO 205 colon) of 231 nM, a TGI (COLO 205 colon) of 515 nM and a GI50 (OVCAR-5 ovarian) of 390 nM. The TGI (OVCAR-5 ovarian) was 13900 nM, the GI50 (T-47D breast) was 3740 nM and the TGI (T-47D breast) was 22700 nM. It also gave a GI50 (UO-31 renal) of 1050 nM, a TGI (UO-31 renal) of 14100 nM and a GI50 (NCI-H23 lung) of 378 nM. It also gave a TGI (NCI-H23 lung) of 13200 nM, a GI50 (MALME-3M melanoma) of 512 nM and a TGI (MALME-3M melanoma) of 21100 nM. The GI50 (KM12 colon) was 342 nM, the TGI (KM12 colon) was 4900 nM and the GI50 (RXF 393 renal) was 343 nM. It also gave a TGI (RXF 393 renal) of 13600 nM, a GI50 (CAKI-1 renal) of 444 nM and a TGI (CAKI-1 renal) of 13600 nM. The GI50 (A498 renal) was 8500 nM, the TGI (A498 renal) was 21600 nM and the GI50 (NCI-H226 lung) was 511 nM. For the same molecule, the TGI (NCI-H226 lung) was 5430 nM, the GI50 (RPMI-8226 leukemia) was 521 nM and the TGI (RPMI-8226 leukemia) was > 52300 nM. It also gave a GI50 (SR leukemia) of 364 nM, a TGI (SR leukemia) of 14300 nM and a GI50 (MOLT-4 leukemia) of 459 nM. The TGI (MOLT-4 leukemia) was 14400 nM, the GI50 (UACC-257 melanoma) was 1250 nM and the TGI (UACC-257 melanoma) was 18200 nM. It also gave a GI50 (SF-268 CNS) of 515 nM, a TGI (SF-268 CNS) of 10200 nM and a GI50 (EKVX NSCLC) of 425 nM. It also gave a TGI (EKVX NSCLC) of 11200 nM, a GI50 (HOP-92 NSCLC) of 974 nM and a TGI (HOP-92 NSCLC) of 6340 nM. For the same molecule, the GI50 (SW-620 colon) was 395 nM, the TGI (SW-620 colon) was 14800 nM and the GI50 (CCRF-CEM leukemia) was 366 nM. For the same molecule, the TGI (CCRF-CEM leukemia) was 12600 nM, the GI50 (M14 melanoma) was 371 nM and the TGI (M14 melanoma) was 12700 nM. It also gave a GI50 (SF-539 CNS) of 227 nM, a TGI (SF-539 CNS) of 551 nM and a GI50 (HS 578T breast) of 296 nM. The TGI (HS 578T breast) was 3440 nM, the GI50 (HCT-116 colon) was 331 nM and the TGI (HCT-116 colon) was 4340 nM. For the same molecule, the GI50 (OVCAR-3 ovarian) was 302 nM, the TGI (OVCAR-3 ovarian) was 2960 nM and the GI50 (TK-10 renal) was 7960 nM. It also gave a TGI (TK-10 renal) of 22900 nM, a GI50 (DU-145 prostate) of 367 nM and a TGI (DU-145 prostate) of 11600 nM. For the same molecule, the GI50 (MDA-MB-435) was 250 nM, the TGI (MDA-MB-435) was 647 nM and the GI50 (HT29 colon) was 290 nM. For the same molecule, the TGI (HT29 colon) was 992 nM, the GI50 (U251 CNS) was 311 nM and the TGI (U251 CNS) was 4600 nM. The GI50 (LOX IMVI melanoma) was 350 nM, the TGI (LOX IMVI melanoma) was 6220 nM and the GI50 (K-562 leukemia) was 354 nM. It also gave a TGI (K-562 leukemia) of 16300 nM, a GI50 (SK-OV-3 ovarian) of 691 nM and a TGI (SK-OV-3 ovarian) of 15000 nM. For the same molecule, the GI50 (MCF7 breast) was 333 nM, the TGI (MCF7 breast) was 10500 nM and the GI50 (NCI-H460 lung) was 363 nM. For the same molecule, the TGI (NCI-H460 lung) was 4100 nM, the GI50 (SNB-75 CNS) was 316 nM and the TGI (SNB-75 CNS) was 5630 nM. It also gave a GI50 (SK-MEL-28 melanoma) of 856 nM, a TGI (SK-MEL-28 melanoma) of 16700 nM and a GI50 (786-0 renal) of 411 nM. For the same molecule, the TGI (786-0 renal) was 8280 nM, the GI50 (BT-549 breast) was 348 nM and the TGI (BT-549 breast) was 1020 nM. For the same molecule, the GI50 (OVCAR-8 ovarian) was 272 nM, the TGI (OVCAR-8 ovarian) was 816 nM and the GI50 (ACHN renal) was 512 nM. It also gave a TGI (ACHN renal) of 14000 nM, a GI50 (A549 NSCLC) of 423 nM and a TGI (A549 NSCLC) of 13400 nM. It also gave a GI50 (HCT-15 colon) of 340 nM, a TGI (HCT-15 colon) of 8830 nM and a GI50 (MDA-MB-468 breast) of 235 nM. The TGI (MDA-MB-468 breast) was 572 nM, the GI50 (HL-60(TB) leukemia) was 230 nM and the TGI (HL-60(TB) leukemia) was 659 nM. It also gave a GI50 (HOP-62 NSCLC) of 557 nM, a TGI (HOP-62 NSCLC) of 11800 nM and a GI50 (SK-MEL-5 melanoma) of 215 nM. For the same molecule, the TGI (SK-MEL-5 melanoma) was 497 nM, the GI50 (NCI/ADR-RES ovarian) was 238 nM and the TGI (NCI/ADR-RES ovarian) was 587 nM. It also gave a GI50 (SNB-19 CNS) of 387 nM, a TGI (SNB-19 CNS) of 13500 nM and a GI50 (OVCAR-4 ovarian) of 3560 nM. For the same molecule, the TGI (OVCAR-4 ovarian) was 24100 nM.
